We go through one molecule from PMC8344021, “Discovery of Small Molecule Bak Activator for Lung Cancer Therapy” (Theranostics, 2021).

A short description of data set [1]: Toxicity in mice bearing A549 xenografts. Type of data set: in vivo, Nu/Nu nude mice. The following applies: 28 days. As to the method: To assess whether BKA-073 induced suppression of tumor growth occurs through activation of Bak and apoptosis in vivo, representative samples from harvested tumor tissues were analyzed by cross-linking with BMH for Bak oligomerization or by immunohistochemistry (IHC) for active caspase 3 as described, [29], [47]. […] There were no decreases in white cells (WBC), red blood cells (RBC) and platelets (PLT) in blood.
Figure 5 Toxicity of BKA-073 in vivo. (A-C) Body weight (A), blood analysis (B) and H&E histology of various organs (C) from mice bearing A549 xenografts after treatment with increasing doses (0, 5, 10, 15mg/kg/d) of BKA-073 for 28 days. […]
Whole blood (250µL) was collected in EDTA-coated tubes via cardiac puncture of anesthetized
mice for hematology studies. […]

The target in data set [2] is T1, human Bak protein (Homo sapiens, UniProt Q16611).
T1 construct: purchased Creative Biomart BAK1-26166TH
T1 sequence (Q16611 whole entry): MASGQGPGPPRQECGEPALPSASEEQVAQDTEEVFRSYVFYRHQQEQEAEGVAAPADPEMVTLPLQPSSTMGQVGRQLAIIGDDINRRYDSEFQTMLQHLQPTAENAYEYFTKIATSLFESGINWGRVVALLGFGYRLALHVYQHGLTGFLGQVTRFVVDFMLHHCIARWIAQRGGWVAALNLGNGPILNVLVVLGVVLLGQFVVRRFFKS
Put plainly: Competitive fluorescence polarization (FP) assay with fluorescent Bak BH3 peptide. Type of data set: binding. The following applies: purified human Bak protein, fluorescent Bak BH3 domain peptide; mean ± SD, n = 3. An excerpt: To confirm the binding of BKA-073 with Bak, we first conducted a competitive fluorescence polarization (FP) assay using purified human Bak protein, fluorescent Bak BH3 domain peptide, and BKA-073 as described, [37]-[40]. […] There are multiple amino acid differences in the BH3 domains between Bak and other Bcl2 family members, which helps to explain why BKA-073 only binds to Bak but not to other Bcl2 family members (i.e. Bax, Bcl2, Bcl-XL, Bcl-w and Mcl-1). In addition to the FP assay, isothermal titration calorimetry (ITC) was also employed to measure Bak/BKA-073 binding. […] In addition to human Bak/BKA-073 binding, we measured mouse Bak/BKA-073 binding using ITC.
(1 x 10^5 cells) was transferred to a 5 ml culture tube, followed by the addition of 5 μl of FITC Annexin V and 5 μl propidium iodide (PI). […] Samples were analyzed by flow cytometry (BD FACSCantoTMII, BD Biosciences, San Jose, CA). ∆% cell death was calculated with the formula: (% cell death treated - % cell death non-treated) as described […]
Fluorescence polarization (FP) assay
Fluorescence polarization assay was carried out as described previously. […] The FP values (in millipolarization units) were measured using a fluorescence microplate reader at 485/530 nm (Gemini XPS, Molecular Devices). Data analysis and inhibit ory constant (Ki) value was determined by GraphPad prism software as described. […]
Background: Polarisation of emitted light reports the rotation of a fluorescent probe.

One may read the Ki as the equilibrium dissociation constant of an inhibitor or competing ligand from its target. Regarding `COc1ccc2nc3ccccc3c(NCCNCC(C)O)c2c1` (stereo not drawn) [BKA-073], in data set [1] (5, 10, 15mg/kg/d i.p.), the body weight result is recorded as “No weight loss”; the “kidney (BUN) and liver (ALT and AST) function” value was “in the normal range”; the “white cells (WBC), red blood cells (RBC) and platelets (PLT) in blood” value is given as “no decreases”. Besides, the tolerability result in data set [1] (5-15mg/kg/d i.p.) is “well tolerated without significant toxicity”. Also, the “histopathology of normal tissues (heart, liver, lung, brain, spleen, kidney, intestine)” value in data set [1] (5~15mg/kg/d i.p.) was “no evidence of normal tissue toxicities”. This molecule also yielded a Ki in data set [2] of 72.3 ± 5.96 nM.
